{
  "source": "patent US20060078874A1",
  "about": "“Use of nuclear hormone receptors” (Novo Nordisk A/S, priority 2002, published 2006)",
  "key": {"FXRbeta": {"test_system": "FXRbeta", "assay": "FFMAS on mouse FXRbeta (FIG. 3)", "format": "biochemical"}, "FXRalpha": {"biological_target": "T1, FXRalpha (Homo sapiens, UniProt Q96RI1)", "T1 sequence (Q96RI1 1-486)": "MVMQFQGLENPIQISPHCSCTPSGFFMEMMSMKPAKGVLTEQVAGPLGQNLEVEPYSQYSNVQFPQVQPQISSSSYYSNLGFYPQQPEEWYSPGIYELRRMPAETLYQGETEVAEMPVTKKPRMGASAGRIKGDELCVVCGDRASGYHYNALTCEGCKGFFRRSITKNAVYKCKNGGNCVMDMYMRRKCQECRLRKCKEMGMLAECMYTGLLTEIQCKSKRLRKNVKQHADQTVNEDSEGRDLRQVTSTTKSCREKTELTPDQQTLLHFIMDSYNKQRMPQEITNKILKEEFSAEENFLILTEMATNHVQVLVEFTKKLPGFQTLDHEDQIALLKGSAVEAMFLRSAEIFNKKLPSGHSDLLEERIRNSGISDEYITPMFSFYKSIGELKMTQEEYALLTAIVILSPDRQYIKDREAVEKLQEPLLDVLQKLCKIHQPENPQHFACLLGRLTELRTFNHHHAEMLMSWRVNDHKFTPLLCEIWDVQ", "assay": "FFMAS on human FXRalpha (FIG. 2)", "format": "biochemical"}, "LXRα [1]": {"biological_target": "T2, LXRα (Homo sapiens, UniProt Q13133)", "T2 sequence (Q13133 1-447)": "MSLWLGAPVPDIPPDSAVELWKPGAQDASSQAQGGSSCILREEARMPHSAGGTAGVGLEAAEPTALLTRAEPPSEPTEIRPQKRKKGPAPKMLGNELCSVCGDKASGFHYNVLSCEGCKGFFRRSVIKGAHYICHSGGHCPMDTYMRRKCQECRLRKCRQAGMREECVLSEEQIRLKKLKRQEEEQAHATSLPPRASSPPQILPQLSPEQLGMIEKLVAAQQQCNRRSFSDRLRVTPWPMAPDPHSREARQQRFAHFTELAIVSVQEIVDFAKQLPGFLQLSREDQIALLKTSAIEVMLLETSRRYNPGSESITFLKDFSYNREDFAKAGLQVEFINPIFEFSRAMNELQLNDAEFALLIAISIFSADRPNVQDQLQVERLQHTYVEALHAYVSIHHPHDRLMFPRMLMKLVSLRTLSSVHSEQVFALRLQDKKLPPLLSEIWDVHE", "details": "Janowski et al. Nature 383 (1996); no direct binding explored; cited from earlier work"}, "naked oocytes (NO) [2]": {"test_system": "naked oocytes (NO)", "assay": "Agonistic oocyte assay, naked oocytes (NO / NkO test)", "format": "cell-based, mouse", "details": "for % GVBD + PB: NkO test", "procedure": "(§1) An Agonistic Oocyte Assay Can be Performed as Follows: Oocytes were obtained from immature female mice (C57BL/6J×DBA/2J F1-hybrid, Bomholtgaard, Denmark) weighing 13-16 grams, that were kept under controlled temperature (20-22° C.), light (lights on 06.00-18.00) and relative humidity (50-70%). The mice received an intra-peritoneal injection of 0.2 ml gonadotropins (Gonal-F, Serono) containing 20 IU FSH and 48 hours later the animals were killed by cervical dislocation. The ovaries were dissected out and the oocytes were isolated in Hx-medium (see below) under a stereo microscope by manual rupture of the follicles using a pair of 27 gauge needles. Spherical oocytes displaying an intact germinal vesicle (hereinafter designated GV) were divided in cumulus enclosed oocytes (hereinafter designated CEO) and naked oocytes (hereinafter designated NO) and placed in α-minimum essential medium (α-MEM without ribonucleosides, Gibco BRL, Cat. No. 22561) supplemented with 3 mg/ml bovine serum albumin (BSA, Sigma Cat. No. A-7030), 5 mg/ml human serum albumin (HSA, Statens Seruminstitute, Denmark), 0.23 mM pyruvate (Sigma, Cat. No S-8636), 2 mM glutamine (Flow Cat. No. 16-801), 100 IU/ml penicillin and 100 μg/ml streptomycin (Flow, Cat No. 16-700). This medium was supplemented with 3 mM hypoxanthine (Sigma Cat. No. H-9377) and designated Hx-medium. The oocytes were rinsed three times in Hx-medium and oocytes of uniform size were divided into groups of CEO and NO. CEO and NO were cultured in 4-well multidishes (Nunclon, Denmark) in which each well contained 0.4 ml of Hx-medium. One control well (i.e., 35-45 oocytes cultured in identical medium with no addition of test compound) was always cultured simultaneously with 3 test wells (35-45 oocytes per well supplemented with test compound). The oocytes were cultured in a humidified atmosphere of 5% CO2 in air for 24 hours at 37° C. By the end of the culture period, the number of oocytes with germinal vesicle (hereinafter designated GV), GVBD, and polar body (herein designated PB), respectively, were counted using a stereomicroscope ([…] MZ 12). The percentage GVBD, defined as percentage of oocytes undergoing GVBD per total number of oocytes in that well, was calculated as: % GVBD=100×(number of GVBD+number of PB)/(total number oocytes). The % PB was defined as percentage of oocytes displaying one extruded polar body per total number of oocytes in that well. […] The relative effect of the tested compound is calculated as follows: Relative effect=100×((test GVBD %-negative control GVBD %)/(FF-MAS GVBD %-negative control GVBD %))."}, "LXRβ [3]": {"biological_target": "T3, LXRβ (Homo sapiens, UniProt P55055)", "T3 sequence (P55055 1-460)": "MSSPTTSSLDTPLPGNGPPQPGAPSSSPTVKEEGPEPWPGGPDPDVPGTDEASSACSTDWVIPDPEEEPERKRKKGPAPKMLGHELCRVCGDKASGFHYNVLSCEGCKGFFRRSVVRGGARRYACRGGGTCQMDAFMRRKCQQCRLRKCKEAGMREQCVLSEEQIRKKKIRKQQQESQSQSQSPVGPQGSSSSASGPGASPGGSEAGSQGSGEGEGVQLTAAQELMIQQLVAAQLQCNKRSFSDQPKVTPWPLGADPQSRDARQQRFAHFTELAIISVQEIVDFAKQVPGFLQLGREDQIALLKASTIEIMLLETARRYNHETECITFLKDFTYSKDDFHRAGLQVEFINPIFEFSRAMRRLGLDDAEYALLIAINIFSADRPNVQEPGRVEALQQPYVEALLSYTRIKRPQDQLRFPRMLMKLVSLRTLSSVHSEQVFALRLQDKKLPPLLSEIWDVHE", "assay": "Recruitment of co-factors to LXRβ (HTRF assay)", "format": "biochemical", "source_text": "(§2) The HTRF assay is described in Methods 25 (2001), 54-61. (HTRF is an abbreviation for homogeneous time-resolved fluorescence.)\n(§3) The EC50 value is the dose which leads to a 50% saturation."}, "[4]": {"test_system": "cumulus enclosed oocytes (CEO)", "assay": "Oocyte maturation assay, cumulus enclosed oocytes (CEO test)", "format": "cell-based, mouse", "procedure": "as §1"}, "LXRα [5]": {"biological_target": "T2, LXRα", "assay": "Recruitment of co-factors to LXRα (HTRF assay)", "format": "biochemical", "source_text": "as §2, §3"}, "naked oocytes (NO) [6]": {"test_system": "naked oocytes (NO)", "details": "Byskov et al. Nature 374 (1995); cited from earlier work"}, "LXRα [7]": {"biological_target": "T2, LXRα", "assay": "Agonist activity against LXRα"}, "PXR": {"biological_target": "T4, PXR (Homo sapiens, UniProt O75469)", "T4 sequence (O75469 1-434)": "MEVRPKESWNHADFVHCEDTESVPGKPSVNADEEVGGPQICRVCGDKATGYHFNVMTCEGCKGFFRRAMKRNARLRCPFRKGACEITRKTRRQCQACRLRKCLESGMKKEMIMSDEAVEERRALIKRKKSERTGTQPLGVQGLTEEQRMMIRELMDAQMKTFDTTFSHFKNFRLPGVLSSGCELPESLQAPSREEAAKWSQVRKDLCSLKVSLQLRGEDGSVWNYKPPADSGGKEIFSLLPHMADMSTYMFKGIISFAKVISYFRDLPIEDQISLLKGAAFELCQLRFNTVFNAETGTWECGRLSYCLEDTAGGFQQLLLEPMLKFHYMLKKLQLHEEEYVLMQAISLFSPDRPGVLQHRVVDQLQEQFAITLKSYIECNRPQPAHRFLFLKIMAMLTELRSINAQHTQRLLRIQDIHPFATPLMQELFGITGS", "assay": "Agonist activity against PXR"}, "LXRβ [8]": {"biological_target": "T3, LXRβ", "assay": "Agonist activity against LXRβ"}, "[9]": {"details": "10 μM, naked oocytes (NO) cultured in vitro for 24 hours in Hx-medium"}, "[10]": {"details": "dose which leads to 50% saturation"}},
  "note": "pEC50: −log10 of the molar value.",
  "data": [
    {"molecule": "CC(C)=CCC[C@@H](C)[C@H]1CC=C2C3=C(CC[C@@]21C)[C@@]1(C)CC[C@H](O)C(C)(C)[C@@H]1CC3", "note": "[FF-MAS, 4,4-dimethyl-5α-cholesta-8,14,24-triene-3β-ol]", "values": [
      {"measurement": "Behaviour on mouse FXRbeta", "setting": "FXRbeta", "result": "partial agonist"},
      {"measurement": "Behaviour on human FXRalpha", "setting": "FXRalpha", "result": "partial agonist"},
      {"measurement": "Transactivation of LXRα", "setting": "LXRα [1]", "result": "able to transactivate LXRα"},
      {"measurement": "Mean Relative Effect", "setting": "naked oocytes (NO) [2]; 10 μM, NO, 24 hours, indexed: control 0, FF-MAS 100", "result": 100},
      {"measurement": "Mean % GVBD", "setting": "naked oocytes (NO) [2]; [9]", "result": 86.1, "unit": "%"},
      {"measurement": "Mean % PB", "setting": "naked oocytes (NO) [2]; [9]", "result": 28.5, "unit": "%"},
      {"measurement": "% GVBD + PB", "setting": "naked oocytes (NO) [2]; Hx + 10 μM", "result": "90 ± 8", "unit": "%"},
      {"measurement": "Behaviour on human LXRs (LXRβ)", "setting": "LXRβ [3]; FIGS. 1A and 1B", "result": "agonist"},
      {"measurement": "pEC50", "setting": "LXRβ [3]; [10]", "result": "~7.68"},
      {"measurement": "% GVBD + PB", "setting": "[4]; Hx + 10 μM", "result": "78 ± 9", "unit": "%"},
      {"measurement": "Behaviour on human LXRs (LXRα)", "setting": "LXRα [5]; FIGS. 1A and 1B", "result": "agonist"},
      {"measurement": "pEC50", "setting": "LXRα [5]; [10]", "result": "~7.17"},
      {"measurement": "Induction of meiosis in NO in vitro", "setting": "naked oocytes (NO) [6]", "result": "induce meiosis"}
    ]},
    {"molecule": "O=C(O)Cc1cccc(OCCCN(Cc2cccc(C(F)(F)F)c2Cl)CC(c2ccccc2)c2ccccc2)c1", "note": "[90-8684, 2-(3-{3-[[2-chloro-3-(trifluoromethyl)benzyl](2,2-diphenylethyl)amino]propoxy}phenyl)acetic acid]", "values": [
      {"measurement": "Activity against LXRα", "setting": "LXRα [7]", "result": "showed activity"},
      {"measurement": "% GVBD + PB", "setting": "naked oocytes (NO) [2]; Hx + 5 μM", "result": "45 ± 5", "unit": "%"},
      {"measurement": "% GVBD + PB", "setting": "naked oocytes (NO) [2]; Hx + 10 μM", "result": "49 ± 8", "unit": "%"},
      {"measurement": "% GVBD + PB", "setting": "naked oocytes (NO) [2]; Hx + 15 μM", "result": "54 ± 5", "unit": "%"},
      {"measurement": "Meiosis-inducing effect in an oocyte maturation assay", "setting": "naked oocytes (NO) [2]; mouse oocytes, NkO and CEO tests", "result": "dose-dependent maturation of the oocytes"},
      {"measurement": "Activity against PXR", "setting": "PXR", "result": "showed activity"},
      {"measurement": "Activity against LXRβ", "setting": "LXRβ [8]", "result": "showed activity"},
      {"measurement": "% GVBD + PB", "setting": "[4]; Hx + 2.5 μM", "result": "69 ± 3", "unit": "%"},
      {"measurement": "% GVBD + PB", "setting": "[4]; Hx + 5 μM", "result": "71 ± 6", "unit": "%"},
      {"measurement": "% GVBD + PB", "setting": "[4]; Hx + 10 μM", "result": "86 ± 7", "unit": "%"}
    ]}
  ]
}
